Source: ChEMBL document CHEMBL3885861, “Open TG-GATES”

Species on record: Rattus norvegicus
Experiment: Open TG-GATES - Regimen: Daily Repeat
Format: toxicity, organism-based, Sprague-Dawley
Set-up: regimen Daily Repeat, gender Male, age 6 weeks
Details: in vivo, po, 1000 mg/kg, route gavage, dose level High; for APTT / Bas / Eos / Fbg / Hb / Ht / Lym / MCHC / MCV / Mono / Neu / PT / Plat / RBC / Ret / WBC: tissue Blood; for KIDNEY_L / KIDNEY_R / KIDNEY_TOTAL: tissue Kidney; for LIVER: tissue Liver; for ALP / ALT / AST / BUN / CRE / Ca / Cl / DBIL / GLC / IP / K / LDH / Na / PL / RALB / TBIL / TG / TP / gamma-GTP: tissue Plasma

## CN(C)C(=N)N=C(N)N [METFORMIN]
72 h, time 3 day
  TERMINAL_BW: 213.8 g
  APTT: 17.6 s
  Bas: 0%
  Eos: 1%
  Fbg: 223.8 mg/dL
  Hb: 13.4 g/dL
  Ht: 39.4%
  Lym: 72.8%
  MCHC: 34.1%
  MCV: 63.1 fL
  Mono: 4%
  Neu: 22%
  PT: 12.4 s
  Plat: 121.1 x10_4/uL
  RBC: 624.8 x10_4/ul
  Ret: 5.5%
  WBC: 107 x10_2/uL
  KIDNEY_L: 0.9 g
  KIDNEY_R: 0.9 g
  KIDNEY_TOTAL: 1.8 g
  LIVER: 11.6 g
  ALP: 1276.4 IU/L
  ALT: 37.4 IU/L
  AST: 74 IU/L
  BUN: 16.6 mg/dL
  CRE: 0.2 mg/dL
  Ca: 11.1 mg/dL
  Cl: 104 meq/L
  DBIL: 0.012 mg/dL
  GLC: 180.2 mg/dL
  IP: 8.7 mg/dL
  K: 4.1 meq/L
  LDH: 63.4 IU/L
  Na: 140.2 meq/L
  PL: 137.8 mg/dL
  RALB: 2.5 g/dL
  TBIL: 0.032 mg/dL
  TG: 95.8 mg/dL
  TP: 5.4 g/dL
  gamma-GTP: 1.2 IU/L
[…], time 7 day
  TERMINAL_BW: 243 g
  APTT: 15.3 s
  Bas: 0.2%
  Eos: 0.6%
  Fbg: 254.8 mg/dL
  Hb: 13.8 g/dL
  Ht: 41%
  Lym: 80.4%
  MCHC: 33.7%
  MCV: 61.8 fL
  Mono: 3.2%
  Neu: 15.2%
  PT: 12.1 s
  Plat: 116.4 x10_4/uL
  RBC: 664 x10_4/ul
  Ret: 5.5%
  WBC: 101.5 x10_2/uL
  KIDNEY_L: 1.1 g
  KIDNEY_R: 1 g
  KIDNEY_TOTAL: 2.1 g
  LIVER: 12.1 g
  ALP: 1316.4 IU/L
  ALT: 44.4 IU/L
  AST: 82.2 IU/L
  BUN: 15 mg/dL
  CRE: 0.2 mg/dL
  Ca: 10.9 mg/dL
  Cl: 104.2 meq/L
  DBIL: 0.012 mg/dL
  GLC: 193.2 mg/dL
  IP: 8.4 mg/dL
  K: 4.4 meq/L
  LDH: 57.4 IU/L
  Na: 140.8 meq/L
  PL: 141.6 mg/dL
  RALB: 2.6 g/dL
  TBIL: 0.024 mg/dL
  TG: 92.2 mg/dL
  TP: 5.5 g/dL
  gamma-GTP: 1 IU/L
[…], time 14 day
  TERMINAL_BW: 288.9 g
  APTT: 17 s
  Bas: 0%
  Eos: 0.8%
  Fbg: 252.2 mg/dL
  Hb: 14.4 g/dL
  Ht: 41.7%
  Lym: 75.4%
  MCHC: 34.5%
  MCV: 59.5 fL
  Mono: 3.4%
  Neu: 19.6%
  PT: 12.2 s
  Plat: 124 x10_4/uL
  RBC: 702 x10_4/ul
  Ret: 4.4%
  WBC: 121.9 x10_2/uL
  KIDNEY_L: 1.2 g
  KIDNEY_R: 1.1 g
  KIDNEY_TOTAL: 2.3 g
  LIVER: 14.4 g
  ALP: 1249.8 IU/L
  ALT: 39 IU/L
  AST: 75 IU/L
  BUN: 17.6 mg/dL
  CRE: 0.2 mg/dL
  Ca: 11 mg/dL
  Cl: 103.6 meq/L
  DBIL: 0.008 mg/dL
  GLC: 188.6 mg/dL
  IP: 6.9 mg/dL
  K: 4.1 meq/L
  LDH: 61.2 IU/L
  Na: 141.4 meq/L
  PL: 164 mg/dL
  RALB: 2.8 g/dL
  TBIL: 0.026 mg/dL
  TG: 148.6 mg/dL
  TP: 6 g/dL
  gamma-GTP: 1.2 IU/L
[…], time 28 day
  TERMINAL_BW: 357 g
  APTT: 17.8 s
  Bas: 0%
  Eos: 1.2%
  Fbg: 258.6 mg/dL
  Hb: 15 g/dL
  Ht: 43.7%
  Lym: 74.6%
  MCHC: 34.3%
  MCV: 57.7 fL
  Mono: 3.2%
  Neu: 20.6%
  PT: 12 s
  Plat: 105.5 x10_4/uL
  RBC: 757.4 x10_4/ul
  Ret: 2.6%
  WBC: 108.4 x10_2/uL
  KIDNEY_L: 1.4 g
  KIDNEY_R: 1.4 g
  KIDNEY_TOTAL: 2.8 g
  LIVER: 16.5 g
  ALP: 1090.4 IU/L
  ALT: 41.6 IU/L
  AST: 71.4 IU/L
  BUN: 17.4 mg/dL
  CRE: 0.2 mg/dL
  Ca: 11.1 mg/dL
  Cl: 104 meq/L
  DBIL: 0.014 mg/dL
  GLC: 194.2 mg/dL
  IP: 6.7 mg/dL
  K: 3.9 meq/L
  LDH: 50.2 IU/L
  Na: 145.2 meq/L
  PL: 152.6 mg/dL
  RALB: 2.7 g/dL
  TBIL: 0.034 mg/dL
  TG: 148 mg/dL
  TP: 6 g/dL
  gamma-GTP: 1 IU/L
